How the values were obtained:
Test in all cases: anti-phage ELISA, relative SH3 binding activity of phage clones
Lck-SH3 = system: Lck-SH3; parameters: species or system menschlichen; conditions: phage-displayed peptide, Fig. 2f; binding to Lck-SH3 compared with other SH3 domains
From the text: (§1) "anti-Phage-ELISA" - Bestimmung der relativen SH3-Bindungsaktivität einzelner Phagenklone
(§2) Dieser Bindungstest ist ein häufig verwendeter Test zur schnellen Bestimmung relativer Bindungsstärken selektierter Peptide, die hierbei noch physikalisch mit dem Phagen verknüpft vorliegen. Dieser Schritt dient auch zur Eliminierung von (bei dieser Methode nicht selten auftretenden) Phagenvarianten, die z. B. aufgrund ihrer Affinität zur Plastikoberfläche der verwendeten Mikrotiterplatten, angereichert werden und die somit zur Verfälschung der Ergebnisse führen können. Eine grundsätzliche Beschreibung der Methode findet sich z. B. unter Sparks et al. Methods Enzymol. 1995; 255:498-509.
(§3) GST-SH3 Protein wurde in einer Konzentration von 1-10 µg/ml in Tris-Bis über Nacht bei 4°C in Mikrotiterplatten immobilisiert. Verbleibende Bindungsstellen wurden durch 2-stündige Inkubation mit Blockierungspuffer (Bis-Tris mit 2 % Magermilchpulver) abgesättigt. In einer anderen Mikrotiterplatte wurden zuerst je 100 µl Suspension der zu testenden Phagenvariante mit 100 µl Blockierungspuffer für 20 Minuten vorinkubiert und erst dann für 1 Stunde zum immobilisierten GST-SH3 Protein gegeben. Nach einem Waschschritt mit Bis-Tris wurde ein Meerrettich-Peroxidase-konjugierter Antikörper zugegeben und die Platten für eine weitere Stunde inkubiert. […]

Hck-SH3 = conditions: phage-displayed peptide, Fig. 2f; binding to Hck-SH3 compared with Lck-SH3
From the text: as §1, §2, §3

Lyn-SH3 = conditions: phage-displayed peptide, Fig. 2f; binding to Lyn-SH3 compared with Lck-SH3
From the text: as §1, §2, §3

“HSKYPLPPLPSL [PD1, control peptide from standard selection with Lck-SH3 as bait]” was tested, and the “relative SH3-Bindungsaktivität” value (Lck-SH3) was “nicht die stärkste Bindung”, the “relative SH3-Bindungsaktivität” value (Hck-SH3) was “ähnlich gut” and the “relative SH3-Bindungsaktivität” value (Lyn-SH3) was “ähnlich gut”.

Source: patent EP2472259B1, “Specific molecules clinging to a lure” (Forschungszentrum Jülich GmbH, priority 2006, dated 2014)
